*1 amine or outer side, *2 acyl side, *3 side chain or, on linkers, in order; H or OH if unused. Where a SMILES comes first, the peptide text is derived from it. Bridges are numbered along the chain shown (N, C = ends). [ ]: non-standard residue; d: D form. X48 = CCCC[C@@H](/C=C\[C@@H](Cc1cccnc1)C(=O)[*:2])N[*:1]; X18 = CNC(=N)N(C)c1ccc(C[C@H](N[*:1])C(=O)[*:2])cc1; Ala(pyrimidin-5-yl) = N[C@@H](Cc1cncnc1)C(=O)O; X25 = O=C([C@H](Cc1ccc(F)nc1)N[*:1])[*:2]; X11 = CC(C)(F)CC[C@H](N[*:1])C(=O)[*:2]; NMeAha = CN[C@@H](CCN=[N+]=[N-])C(=O)O; Phe(3-Me) = Cc1cccc(C[C@H](N)C(=O)O)c1; Phe(4-F) = N[C@@H](Cc1ccc(F)cc1)C(=O)O; X2 = O=C([C@H](Cc1ccccc1F)O[*:1])[*:2]; Ala(cPent) = N[C@@H](CC1CCCC1)C(=O)O; Phe(2-F) = N[C@@H](Cc1ccccc1F)C(=O)O; NMe3Pal = CN[C@@H](Cc1cccnc1)C(=O)O; X1 = O=C(C12CC(CN[*:1])(C1)C2)[*:2]; NMeR = CN[C@@H](CCCNC(=N)N)C(=O)O; NMeF = CN[C@@H](Cc1ccccc1)C(=O)O; PhLac = O=C(O)[C@@H](O)Cc1ccccc1; 3Pal = N[C@@H](Cc1cccnc1)C(=O)O; d3Pal = N[C@H](Cc1cccnc1)C(=O)O; Cba = N[C@@H](CC1CCC1)C(=O)O; NMeNle = CCCC[C@H](NC)C(=O)O; αMeC = C[C@](N)(CS)C(=O)O; NMeA = CN[C@@H](C)C(=O)O; Nle = CCCC[C@H](N)C(=O)O
What follows are molecules tested against KRAS-G12D protein (Homo sapiens, UniProt P01116, G12D) (assay: SOS-mediated nucleotide exchange assay (BODIPY-GDP / Tb-streptavidin TR-FRET)).
Sequence of KRAS-G12D protein (P01116 1-188 isoform P01116-2 G12D): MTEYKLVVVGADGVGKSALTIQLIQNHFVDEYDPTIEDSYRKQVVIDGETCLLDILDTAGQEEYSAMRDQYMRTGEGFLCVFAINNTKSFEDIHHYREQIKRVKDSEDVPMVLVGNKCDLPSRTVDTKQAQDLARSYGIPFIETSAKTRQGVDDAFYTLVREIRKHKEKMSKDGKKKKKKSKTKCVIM
Assay type: biochemical
`CCCC[C@@H]1NC(=O)[C@H](Cc2ccccc2F)NC(=O)[C@H](CCCC)N(C)C(=O)[C@@H](Cc2cccnc2)NC(=O)[C@H](CCCNC(=N)N)N(C)C(=O)[C@H](Cc2ccccc2)NC(=O)C23CC(CNC(=O)[C@H](Cc4cccnc4)N(C)C1=O)(C2)C3` [compound 109, cyclo(F-NMeR-d3Pal-NMeNle-Phe2F-Nle-NMe3Pal-amBCP)] (cyclo(F[NMeR][d3Pal][NMeNle][Phe(2-F)][Nle][NMe3Pal][X1])) gave an EC50 of 1200 nM. `CCCC[C@@H]1NC(=O)[C@H](Cc2cccnc2)NC(=O)[C@H](C)N(C)C(=O)[C@H](Cc2ccc(F)nc2)NC(=O)C23CC(CNC(=O)[C@H](Cc4cccnc4)N(C)C(=O)[C@H](CCCC)NC(=O)[C@H](Cc4ccccc4F)NC1=O)(C2)C3` [compound 165, cyclo(4F3Pal-NMeA-3Pal-Nle-Phe2F-Nle-NMe3Pal-amBCP)] (cyclo([3Pal][Nle][Phe(2-F)][Nle][NMe3Pal][X1][X25][NMeA])) showed an EC50 of 1780 nM. With `CCCC[C@@H]1NC(=O)[C@H](Cc2ccccc2F)NC(=O)[C@H](CC2CCCC2)NC(=O)[C@H](Cc2cncnc2)NC(=O)[C@H](C)N(C)C(=O)[C@H](Cc2ccccc2)OC(=O)C23CC(CNC(=O)[C@H](Cc4cccnc4)N(C)C1=O)(C2)C3` [compound 126, cyclo(FLac-NMeA-PyrimAla-cPeA-Phe2F-Nle-NMe3Pal-amBCP)] (cyclo([Ala(cPent)][Phe(2-F)][Nle][NMe3Pal][X1][PhLac][NMeA][Ala(pyrimidin-5-yl)])) the EC50 was 22.3 nM. With `CCCC[C@@H]1NC(=O)[C@H](Cc2cccnc2)NC(=O)[C@H](C)N(C)C(=O)[C@H](Cc2cccc(C)c2)NC(=O)C23CC(CNC(=O)[C@H](Cc4cccnc4)N(C)C(=O)[C@H](CCCC)NC(=O)[C@H](Cc4ccccc4F)NC1=O)(C2)C3` [compound 166, cyclo(Phe3Me-NMeA-3Pal-Nle-Phe2F-Nle-NMe3Pal-amBCP)] (cyclo([3Pal][Nle][Phe(2-F)][Nle][NMe3Pal][X1][Phe(3-Me)][NMeA])) the EC50 was 22.3 nM. `CCCC[C@@H]1NC(=O)[C@H](Cc2cccnc2)NC(=O)[C@H](C)N(C)C(=O)[C@H](Cc2ccc(F)cc2)NC(=O)C23CC(CNC(=O)[C@H](Cc4cccnc4)N(C)C(=O)[C@H](CCCC)NC(=O)[C@H](Cc4ccccc4F)NC1=O)(C2)C3` [compound 167, cyclo(Phe4F-NMeA-3Pal-Nle-Phe2F-Nle-NMe3Pal-amBCP)] (cyclo([3Pal][Nle][Phe(2-F)][Nle][NMe3Pal][X1][Phe(4-F)][NMeA])) showed an EC50 of 99.9 nM. Work on `CCCC[C@H]1/C=C\[C@@H](Cc2cccnc2)C(=O)NCC23CC(C2)(C3)C(=O)O[C@@H](Cc2ccccc2)C(=O)N(C)[C@@H](C)C(=O)N[C@@H](Cc2cncnc2)C(=O)N[C@@H](CCCC)C(=O)N[C@@H](Cc2ccccc2F)C(=O)N1` [SEQ ID NO: 137, cyclo(FLac-NMeA- PyrimAla-Nle-Phe2F- Nlecalken3Pal-amBCP)] (cyclo([NMeA][Ala(pyrimidin-5-yl)][Nle][Phe(2-F)][X48][X1][PhLac])) yielded an EC50 of 590 nM. For `CCCC[C@@H]1NC(=O)[C@H](Cc2cccnc2)NC(=O)[C@H](CCN=[N+]=[N-])N(C)C(=O)[C@H](Cc2ccccc2)OC(=O)C23CC(CNC(=O)[C@H](Cc4cccnc4)N(C)C(=O)[C@H](CCCC)NC(=O)[C@H](Cc4ccccc4F)OC1=O)(C2)C3` [compound 238, cyclo(FLac-NMeDabN3-3Pal-Nle-F2FLac-Nle-NMe3Pal-amBCP)] (cyclo([3Pal][Nle][X2][Nle][NMe3Pal][X1][PhLac][NMeAha])), the EC50 was 5590 nM. Work on `C[C@H]1C(=O)N[C@@H](Cc2cncnc2)C(=O)N[C@@H](CC2CCC2)C(=O)N[C@@H](Cc2ccccc2F)C(=O)N[C@@H](CCC(C)(C)F)C(=O)N(C)[C@@H](Cc2ccccc2)C(=O)NCC23CC(C2)(C3)C(=O)O[C@@H](Cc2ccccc2)C(=O)N1C` [compound 225, cyclo(FLac-NMeA-PyrimAla-cBuA-Phe2F-hL3F-NMeF-amBCP)] (cyclo([Cba][Phe(2-F)][X11][NMeF][X1][PhLac][NMeA][Ala(pyrimidin-5-yl)])) yielded an EC50 of 1.87 nM. In the case of `CCCC[C@@H]1NC(=O)[C@H](Cc2ccc(N(C)C(=N)NC)cc2)NC(=O)[C@H](C)N(C)C(=O)[C@H](Cc2ccccc2)OC(=O)CSC[C@@](C)(C(N)=O)NC(=O)[C@H](Cc2cccnc2)N(C)C(=O)[C@H](CCCC)NC(=O)[C@H](Cc2ccccc2F)NC1=O` [compound 397, cyclo(FLac-NMeA-Phe4GnMeMe-Nle-Phe2F-Nle-NMe3Pal-aMeCl-ClAc)] ({CH2CO}-[PhLac][NMeA][X18][Nle][Phe(2-F)][Nle][NMe3Pal][αMeC]-NH2; thioether N-8), the EC50 is reported as 2.73 nM.
